What is called inhibition is the drop in the measured response relative to a control, in per cent. Low readings indicate little suppression, high ones strong suppression. Broadly, the IC50 is the concentration at which inhibition is half-maximal.

What all share (type): biochemical
One test has as its target T1, NAALAD-ase L (Homo sapiens, UniProt Q9UQQ1).
T1 construct: To construct a full length NAALAD-ase L clone, two new primer sets were designed; expressed in transfected cells; host or cells: COS cells, transient, pcDNA-3
T1 sequence (Q9UQQ1 1-740 S100X/R686S/T687H/S689L/V690R/V691S/T692H/F693I): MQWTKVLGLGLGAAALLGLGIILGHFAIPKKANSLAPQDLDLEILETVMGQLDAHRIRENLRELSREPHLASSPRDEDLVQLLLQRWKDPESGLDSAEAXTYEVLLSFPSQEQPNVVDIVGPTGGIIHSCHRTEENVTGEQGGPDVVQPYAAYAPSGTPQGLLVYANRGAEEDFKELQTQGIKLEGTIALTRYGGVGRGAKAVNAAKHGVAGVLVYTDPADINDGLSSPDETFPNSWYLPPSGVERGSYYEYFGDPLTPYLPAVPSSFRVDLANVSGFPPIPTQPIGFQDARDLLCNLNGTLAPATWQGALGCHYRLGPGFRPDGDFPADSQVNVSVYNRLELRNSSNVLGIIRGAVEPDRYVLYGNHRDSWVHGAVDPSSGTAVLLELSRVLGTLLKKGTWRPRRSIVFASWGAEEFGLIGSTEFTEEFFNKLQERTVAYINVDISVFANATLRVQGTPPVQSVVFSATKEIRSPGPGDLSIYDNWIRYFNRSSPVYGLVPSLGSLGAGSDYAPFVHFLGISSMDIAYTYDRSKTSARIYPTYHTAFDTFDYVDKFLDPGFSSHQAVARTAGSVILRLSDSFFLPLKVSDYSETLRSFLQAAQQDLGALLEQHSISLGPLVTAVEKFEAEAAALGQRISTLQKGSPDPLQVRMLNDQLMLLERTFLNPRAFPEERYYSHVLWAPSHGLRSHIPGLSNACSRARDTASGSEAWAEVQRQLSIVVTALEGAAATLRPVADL
Put plainly: [3H]-NAAG hydrolysis assay, COS cells transfected with NAALAD-ase L. The settings on record: recombinant preparation from COS cells. Here is the method: (§1) FIG. 9: is an illustration of time course of NAALAD-ase activity. Activity of membrane preparations from COS cells transiently transfected with either NAALAD-ase I (A) or […]. Hydrolysis of 500 nM 3[H]-NAAG in 1 mM ZnCl2, 50 mM Tris.HCL (pH 7.4) was assayed for 0, 15, 30 and 60 min at 37° C. in the presence (open circles) or absence (closed circles) of 30 μM quisqualate. Reactions were terminated with 250 mM ice cold sodium phosphate and released 3[H]-glutamate measured. (C) Inhibition of NAALAD-ase I (open circles) and NAALAD-ase II (closed circles) activity by increasing concentrations of quisqualic acid expressed as % of control (activity in the absence of any inhibitor).
COS cells were maintained in complete medium (DMEM supplemented with 10% foetal calf serum, 1× non-essential amino acids and a 1× strptamycin/penicillin/glutamine mix). […] The cell titre was determined in a Coulter counter and cells were seeded in 6 well plates at a density of 15000 cells/cm^2 and allowed to reach approximately 80% confluence (˜2 days growth). […]
(§2) NAALAD-ase activity was quantified by determination of the extent of hydrolysis of N-acetyl-L-aspartyl-L-(3,4-[^3H])-glutamate as previously described (Blakeley et al., 1988). […] Assay eluates were diluated with scintillation cocktail (16 ml Ultima Gold XR) and counted in a scintillation counter (Packard). […]

A further test deals with T2, NAALAD-ase II (Homo sapiens, UniProt Q9Y3Q0).
T2 construct: expressed in transfected cells; host or cells: COS cells, transient, pcDNA-3
T2 sequence (Q9Y3Q0 whole entry): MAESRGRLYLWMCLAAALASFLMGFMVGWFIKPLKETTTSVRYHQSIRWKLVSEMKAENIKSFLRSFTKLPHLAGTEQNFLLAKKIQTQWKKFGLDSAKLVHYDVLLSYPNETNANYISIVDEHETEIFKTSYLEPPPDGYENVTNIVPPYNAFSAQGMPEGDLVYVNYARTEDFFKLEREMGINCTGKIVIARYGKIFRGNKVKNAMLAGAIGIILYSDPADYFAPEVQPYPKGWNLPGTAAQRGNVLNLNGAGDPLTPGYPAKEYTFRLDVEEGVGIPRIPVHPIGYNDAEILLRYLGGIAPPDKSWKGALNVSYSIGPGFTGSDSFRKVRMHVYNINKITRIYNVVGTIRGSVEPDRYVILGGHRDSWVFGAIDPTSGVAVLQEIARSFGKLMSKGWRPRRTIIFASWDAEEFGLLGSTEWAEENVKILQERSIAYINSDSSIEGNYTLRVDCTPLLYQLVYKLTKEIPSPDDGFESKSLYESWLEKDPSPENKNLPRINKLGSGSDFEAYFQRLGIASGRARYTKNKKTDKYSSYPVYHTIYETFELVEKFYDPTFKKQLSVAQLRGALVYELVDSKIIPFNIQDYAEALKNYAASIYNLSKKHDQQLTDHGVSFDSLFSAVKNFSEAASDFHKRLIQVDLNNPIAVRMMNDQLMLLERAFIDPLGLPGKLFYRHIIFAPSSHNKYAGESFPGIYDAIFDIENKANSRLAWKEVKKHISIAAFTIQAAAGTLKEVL
Put plainly: [3H]-NAAG hydrolysis assay, membranes of COS cells transiently transfected with NAALAD-ase II. Here is the method:
as §1
(§3) COS cells were maintained in complete medium (DMEM supplemented with 10% foetal calf serum, 1× non-essential amino acids and a 1× strptamycin/penicillin/glutamine mix). Prior to transfection cells were washed twice with PBS, Ca^+2/Mg^2+ free pre-warmed to 37° C. and dissociated from culture plates by addition of a trypsin/EDTA solution for 1–2 minutes. Cells were collected after a 10 min spin at 1600 rpm and re-suspended in 1–2 ml of equilibrated (5% CO2/95% air) pre-warmed medium. The cell titre was determined in a Coulter counter and cells were seeded in 6 well plates at a density of 15000 cells/cm^2 and allowed to reach approximately 80% confluence (˜2 days growth). For each transfection 6 μl FuGENE6 (Boehringer Mannheim, Germany) was added to 96 μl serum free medium and incubated for 5 minutes at 20° C. This preparation was added to a second tube containing 1 μg of NAALAD-ase/pcDNA3 DNA, mixed gently and allowed to stand for 15 minutes at room temperature. The DNA/FuGENE6/serum-free medium mix was pipetted into a well containing 2 ml fresh complete medium. […]
as §2

The target in test [1] is T3, NAALAD-ase I (Homo sapiens, UniProt Q04609, Y75H). Put plainly: Scintillation proximity assay (SPA) of [3H]-NAAG hydrolysis, recombinant NAALAD-ase I membrane preparations. Set-up: expressed in transfected cells. As to the method:
(§4) FIG. 10: is an illustration of NAALAD-ase activity determinations using SPA beads. (A) 10 μg of protein from LNCaP cell membrane preparations was used per reaction to develop a high throughput assay NAALAD-ase assay. Hydrolysis of 40 nM 3[H]-NAAG in 1 mM ZnCl2, 50 mM Tris-HCL (pH 7.4) was measured at 25° C. for different incubation times in a 100 μl reaction volume. Reactions were terminated by the addition of 100 μl glycine buffer (pH 3.0) and naked YS-SPA beads. (C) Inhibition of NAALAD-ase I (open circles) or LNCaP membrane NAALAD-ase (closed circles) activity by increasing concentrations of quisqualic acid expressed as a % of control (activity in the absence of any inhibitor).
(§5) NAALAD-ase assays were performed at 37° C. or 25° C. for 10 min in the presence of 50 mM Tris-HCl, pH 7.4, containing 1 mM ZnCl2. Each assay was performed in a 100 μl reaction volume containing 40 nM 3[H]-NAAG, 50 mM Tris-HCl (pH 7.4), 1 mM Zn^2+C2 and either 10 μg of recombinant NAALAD-ase I or LNCaP cell membrane preparations. Reactions were terminated by addition of 100 μl glycine buffer (pH 3.0) and 1 mg naked YS-SPA beads. After allowing the beds to settle for 30 min, the assay mixture was counted in a microtiterplate scintillation counter. […]

The target of test [2] is T4, LNCaP membrane NAALAD-ase (Homo sapiens, UniProt Q04609).
T4 construct: 10 μg of protein from LNCaP cell membrane preparations was used per reaction; endogenous in cells; host or cells: LNCaP cell membranes
T4 sequence (Q04609 whole entry): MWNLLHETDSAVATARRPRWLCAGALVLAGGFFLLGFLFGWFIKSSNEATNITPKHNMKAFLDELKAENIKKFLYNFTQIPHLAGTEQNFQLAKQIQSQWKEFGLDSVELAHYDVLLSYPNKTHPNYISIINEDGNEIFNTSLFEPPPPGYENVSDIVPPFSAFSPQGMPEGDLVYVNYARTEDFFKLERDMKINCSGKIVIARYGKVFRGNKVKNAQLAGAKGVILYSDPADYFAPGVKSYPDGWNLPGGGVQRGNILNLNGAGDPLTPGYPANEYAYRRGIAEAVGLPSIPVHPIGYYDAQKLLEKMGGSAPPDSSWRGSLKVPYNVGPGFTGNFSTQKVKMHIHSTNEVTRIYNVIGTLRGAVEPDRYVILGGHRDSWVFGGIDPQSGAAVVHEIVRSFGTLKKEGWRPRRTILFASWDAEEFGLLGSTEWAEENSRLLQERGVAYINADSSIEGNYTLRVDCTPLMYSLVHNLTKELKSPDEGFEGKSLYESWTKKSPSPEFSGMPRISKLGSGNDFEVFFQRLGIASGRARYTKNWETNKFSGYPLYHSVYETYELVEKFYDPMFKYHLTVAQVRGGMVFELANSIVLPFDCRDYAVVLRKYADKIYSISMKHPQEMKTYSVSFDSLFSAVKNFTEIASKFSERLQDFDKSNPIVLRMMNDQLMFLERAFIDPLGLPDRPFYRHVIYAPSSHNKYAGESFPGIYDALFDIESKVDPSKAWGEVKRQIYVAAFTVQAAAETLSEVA
Put plainly: Scintillation proximity assay (SPA) of [3H]-NAAG hydrolysis, LNCaP cell membrane preparations. Here is the method:
as §4, §5

In test [3] the target is T3, NAALAD-ase I. Put plainly: [3H]-NAAG hydrolysis assay, membranes of COS cells transiently transfected with NAALAD-ase I. The arrangement: expressed in transfected cells; host or cells: COS cells, transient, pcDNA-3 (CMV promoter). As to the method:
as §1, §3, §2

T3 sequence (Q04609 whole entry Y75H): as the sequence (Q04609 whole entry) above, with Y75H counted along it

For the compound `N[C@@H](Cn1oc(=O)[nH]c1=O)C(=O)O` [quisqualic acid], the “inhibition of NAALAD-ase L activity against NAAG” value at NAALAD-ase L is “inhibited”. Also, the inhibition at 30 µM against NAALAD-ase II (30 μM, after 60 min (FIG. 9B)) was greater than 50%; on NAALAD-ase I [3] (30 μM, after 60 min (FIG. 9A)) it was greater than 50%. Besides, the IC50 against NAALAD-ase II (IC50, inhibition of NAALAD-ase II activity, 500 nM [3H]-NAAG, 37° C., 60 min, anion exchange column readout (FIG. 9C)) was 17 µM; at NAALAD-ase II (IC50 for NAALAD-ase II (discussion, rounded), recombinant preparation from COS cells, NAAG hydrolysis) it was roughly 10 µM; on NAALAD-ase I [1], 1000 nM; in test [2], 910 nM; against NAALAD-ase I [3] (IC50, inhibition of NAALAD-ase I activity, 500 nM [3H]-NAAG, 37° C., 30 min, anion exchange column readout (FIG. 9C)), 12 µM; on NAALAD-ase I [3] (IC50 for NAALAD-ase I (discussion, rounded), recombinant preparation from COS cells, NAAG hydrolysis) it was roughly 10 µM.

The values are drawn from patent US7217555B1, “Cloning and characterisation of novel mammalian peptidase” (Janssen Pharmaceutica N.V., priority 1998, dated 2007).
